PMC5085131, “Cyclic AMP efflux inhibitors as potential therapeutic agents for leukemia” (Oncotarget, 2016)
Where two headings read alike, the source gives them in different places.

Tests used:
U937 cells [1] = test: F-cAMP efflux assay in U937 cells (screen and dose response); assay type: cell-based, human; conditions: screen at 10 μM, 51 hits retested in dose-response
Method: Cells were loaded with F-cAMP as described. Briefly, cells were resuspended in a hypertonic solution containing 10% polyethylene glycol 1000, 0.5 M sucrose, and 250 μM F-cAMP in cRPMI without FBS, incubated 10 min at room temperature, washed, and then resuspended in hypotonic solution (60% cRPMI, 40% sterile water) for 2 min at room temperature to complete F-cAMP loading. Cells were resuspended in cRPMI and equilibrated for 2 h under normal culture conditions.
Samples were evaluated using Accuri C6 or BD FACScan flow cytometers (Becton Dickinson (BD)).
Liquid handling was accomplished with a Biomek FX Multichannel system (Beckman-Coulter, Fullerton, CA, USA) and/or Biotek Multiflo system (Winooski, VT, USA). F-cAMP-loaded U937 cells (2000/well) were seeded into 384-well polypropylene plates (Greiner Bio-One 784201, Monroe, NC, USA). Cells were treated with compounds (10 μM final concentration) from the Prestwick Chemical Library (Illkirch, France) or […] Collection (MicroSource, Gaylordsville, CT, USA) delivered by pintool (V&P Scientific, San Diego, CA), at a final DMSO concentration of 1%. Plates were foil-sealed with AlumaSeal 384™ (Excel Scientific, Victorville, CA, USA), and incubated inverted overnight. Sample plates were analyzed by CyAn flow cytometers (Beckman-Coulter) configured with HyperCyt high-throughput auto-sampler systems (IntelliCyt, Albuquerque, NM, USA) using 488 nm excitation to assess FL-1 (530/40) MFI levels.
Data were analyzed with HyperView software (IntelliCyt) and time-gated to determine data from each well. Wells with ≥ 50 events were evaluated for FL-1 MFI values. Samples with MFI values ≥ 2 standard deviations above the plate mean negative control values were considered “hit” compounds.
To validate sample data and decrease the number of false-positive hits, compounds were assayed in a high-throughput dose response assay. Plates were set up as in the HTS, with the exception that the plate formats contained 10-well dose responses for each hit compound, at final concentrations ranging from 30 μM to 4 nM.
The dose response data were normalized for percent response based on sample FL-1 MFI values in comparison to untreated F-cAMP-loaded cells kept at 4°C overnight or at time = 0, and were fitted by GraphPad Prism 5 software (GraphPad Software, La Jolla, CA, USA) for sigmoidal dose response with constrained hill slope = 1.

VLA-4 = test: Kinetic analysis of VLA-4 deactivation (LDV-FITC dissociation) in U937 cells with non-desensitizing FPR1 mutant; assay type: cell-based, human; conditions: U937 cells pre-activated through FPR1 mutant, 40 μM, 37°C
Method: Kinetic analysis of the binding and dissociation of the LDV-FITC probe was described previously. Briefly, flow cytometric data were acquired at 37°C while the samples were stirred continuously with a stir bar (Bel-Art Products). First, U937 cells transfected with a non-desensitizing mutant of the Formyl Peptide Receptor FPR1 [43] were analyzed for 30-120 s to establish a baseline. The FPR1 mutant triggers VLA-4 activation, which persists for hundreds of seconds, allowing for integrin deactivation to be detected. Next, the LDV-FITC was added and acquisition was re-established. […] Finally, 40 μM of ICE, forskolin (positive control) or vehicle (negative control) were added. Acquisition was re-established, and data were acquired continuously for up to 1024 s.
Therefore, the transition from low to high affinity state led to increased binding of the probe. This was detected as an increase in the median fluorescence intensity (MFI). VLA-4 deactivation led to the dissociation of the probe and decreased MFI [21].

U937 cells [2] = test: MultiCyt 4-Plex apoptosis assay; assay type: cell-based, human; conditions: for EC50: Homo sapiens, U-937, 24 h
Method: Apoptosis was determined using MultiCyt® 4-Plex Apoptosis Screening Kit (IntelliCyt, cat. 90053). The kit provides four different apoptosis endpoints that include effector caspases 3 and 7 activation, phosphatidylserine surface expression, mitochondrial membrane depolarization and cell membrane integrity. […] Cell membrane damage is detected by the uptake of a proprietary DNA intercalating agent analogous to 7-aminoactinomycin D.
384-well plates (Greiner 784201), pre-loaded with 5 μL cRPMI were stamped using a pintool with 100 nl of DMSO-solubilized compounds from the 100-fold concentrated stock solution. Next, 5 μL U937 cells (2 × 10^6/ml in cRPMI) were added to wells and mixed, and plates were foil-sealed. Compounds (Table 1) were tested in dose response at final concentrations ranging from 15.2 nM to 100 μM (1% DMSO final). Vehicle (DMSO) was used as a negative control. After 24 h incubation under culture conditions, the IntelliCyt MultiCyt 4-Plex Apoptosis Screening Kit was used according to manufacturer's protocol. The data were acquired using iQue Screener Platform (IntelliCyt). Singlet cell populations were analyzed for individual measures of apoptosis, and gates were set based on control histograms.

normal human PBMCs = test: CellTiter-Glo cell viability; assay type: cell-based; conditions: PBMC, overnight, n = 6, ± SEM, read-out: Compound EC50, PBMCs (cell viability)
Method: Healthy PBMCs were obtained from volunteers. Mononuclear cells were purified using Mono-Poly resolving medium (MP Biomedicals, cat. 091698049) according to manufacturer's instructions. PBMCs were resuspended in cRPMI and kept on ice prior to use.
(§1) Cell viability was determined with the CellTiter-Glo® Luminescent Cell Viability Assay (Promega). Greiner 655083 had 100 μL cRPMI +/− 4×10^4 cells/well, and dose response curves of compounds ranged from 100 μM to 1.53 nM (1% DMSO). Wells with DMSO-only served as negative controls. Samples were incubated overnight, and the assay was completed according to the manufacturer's protocol. Plates were analyzed using a Victor^3V™ 1420 Multilabel Counter (Perkin Elmer).

B-ALL cell lines = test: CellTiter-Glo cell viability, all B-ALL cell lines together; assay type: cell-based, human; conditions: Homo sapiens; mean of converged EC50s of six B-ALL lines; read-out: Compound EC50, Mean B-ALL (cell viability)
Method: as §1

[3] = parameters: method as in as printed in each cell; conditions: previously reported; cited from earlier work
[4] = mean of converged EC50s, read-out: Compound EC50, Means (of the apoptosis endpoints)
[5] = n = 4, ± SEM, read-out: Compound EC50, Cell membrane damage
[6] = n = 4, ± SEM, read-out: Compound EC50, Mitochondrial depolarization
[7] = even at the highest ICE concentrations
[8] = n = 4, ± SEM, read-out: Compound EC50, Active Caspase 3/7 +
[9] = n = 4, ± SEM, read-out: Compound EC50, Annexin-V +

EC50 (U937 cells [2]; [9]) [µM] | SMILES | Outcome of screen for inhibitors of cAMP efflux after dose-response validation (U937 cells [1]) | VLA-4 deactivation (dissociation of LDV-FITC) (VLA-4) | EC50 (U937 cells [2]; [4]) [µM] | EC50 (U937 cells [2]; [5]) [µM] | EC50 (U937 cells [2]; [6]) [µM] | Effect on annexin-V binding (U937 cells [2]; [7]) | Effect on caspase activation (U937 cells [2]; [7]) | EC50 (normal human PBMCs) [µM] | EC50 (B-ALL cell lines) [µM] | Anticancer effects [3] | Potential mechanism(s) of action [3] | EC50 (U937 cells [2]; [8]) [µM]
– | C[C@H]1COC2=C1C(=O)C(=O)c1c2ccc2c1CCCC2(C)C [Cryptotanshinone] | potentially active | rapid and reversible VLA-4 deactivation | 25.8 | 30.7 ± 6.83 | 20.9 ± 6.96 | very small effect | very small effect | 11.8 ± 3.11 | 67.7 | ↓cyclin D1, Bcl-2 [47, 115, 116]; ↑p53, Chk1, Chk2 [120] | ↓mTOR, STAT3 signaling [116, 117]; ↓eIF-4E [47] | –
7.55 ± 1.18 | C=C1C(=O)O[C@H]2[C@H]1CC/C(C)=C/CC[C@@]1(C)O[C@@H]21 [Parthenolide] | potentially active | exceeded the effects of the positive control, forskolin | 7.44 | 4.34 ± 0.9 | 5.52 ± 1.02 | – | – | 56 ± 23.3 | 1.77 | ↓VEGF expression & metastasis [61, 124, 125]; ↑p53 activation [48]; ↓cyclin D1 [61, 122] | ↓NF-κB & AP-1 activation [48, 61, 124, 126, 127]; ↓MAPK/ERK signaling [126, 127]; ↓STAT signaling [128]; ↑ROS[48, 65, 128] | 12.4 ± 2.51
51.1 ± 26.2 | Oc1c(I)cc(Cl)c2cccnc12 [Clioquinol] | potentially active | – | 26.7 | 11.1 ± 0.48 | 17.9 ± 2.3 | – | – | 87.8 ± 46.8 | 35.2 | ↓cyclin D1 [110]; ↑p21, p27, p53 [106] | ↓NF-κB activation [108, 112]; ionophore/chelator activity [106, 108, 112]; proteasome inhibition [107, 109] | –

SMILES | EC50 (U937 cells [2]; [9]) [µM] | Outcome of screen for inhibitors of cAMP efflux after dose-response validation (U937 cells [1]) | VLA-4 deactivation (dissociation of LDV-FITC) (VLA-4) | EC50 (U937 cells [2]; [4]) [µM] | EC50 (U937 cells [2]; [5]) [µM] | EC50 (U937 cells [2]; [6]) [µM] | Effect on annexin-V binding (U937 cells [2]; [7]) | Effect on caspase activation (U937 cells [2]; [7]) | EC50 (normal human PBMCs) [µM] | EC50 (B-ALL cell lines) [µM] | Anticancer effects [3] | Potential mechanism(s) of action [3] | EC50 (U937 cells [2]; [8]) [µM]
O=C1C=C2C(=CCOC2O)O1 (stereo not drawn) [Patulin] | 3.75 ± 0.63 | potentially active | exceeded the effects of the positive control, forskolin | 4.95 | 1.54 ± 0.02 | 1.72 ± 0.94 | – | – | 246 ± 181 | 0.38 | ↓ERK1/2 activation [52, 133]; ↑UPR[52, 133]; ↑intracellular [Ca2+] [134] | ↑ROS, DNA damage [57, 59, 132, 133, 135]; ↓glutathione [133, 135] | 12.8 ± 0.09
